Results on 8 compounds are retold here after ChEMBL document CHEMBL1212878, “In vitro ADMET and physicochemical investigations of poly-N-methylated peptides designed to inhibit Abeta aggregation” (Bioorg Med Chem, 2010).

The nature of data set [1]: Aqueous solubility of the compound at pH 7.4. The format is physicochemical.
Data set [2] in a line: Chemical stability of the compound assessed as compound remaining after enzymatic degradation after 24 hrs. The format is physicochemical. As to conditions: read-out: Activity.
The nature of data set [3]: Cytotoxicity against rat 2/4/A1 cells assessed as cell viability up to 200 uM after 4 hrs by MTT assay. The data set is classed as cell-based. To be noted: read-out: Activity.
Data set [4] can be described thus: Apparent permeability across rat 2/4/A1 cells in absence of pronase inhibitor. The format is ADME, cell-based.
Data set [5] can be described thus: Inhibition of Amyloid beta aggregation.

≈ marks a conversion by molar mass, not a printed value. Calls of active or inactive are those of the source. The calls are words filed in the database; no cut-off is given here. Square brackets hold non-standard residues; d marks the D form. Peptide text beside a SMILES is read from it. NMeF = CN[C@@H](Cc1ccccc1)C(=O)O; NMeI = CC[C@H](C)[C@H](NC)C(=O)O; NMeL = CN[C@@H](CC(C)C)C(=O)O; NMeV = CN[C@H](C(=O)O)C(C)C; NMeA = CN[C@@H](C)C(=O)O; Sar = CNCC(=O)O

In data set [1], Ac-IGLMVG-NH2 yielded a solubility of 3 µM. Also, the remaining at 24 h in data set [2] was 20%. In data set [3], the viability at 4 h is 95%. Also, the apparent permeability coefficient (Papp) in data set [4] was determined as 3.1 ×10⁻⁶ cm/s.

`CC[C@H](C)[C@H](NC(C)=O)C(=O)N(C)CC(=O)N[C@@H](CC(C)C)C(=O)N[C@@H](CCSC)C(=O)N[C@H](C(=O)N(C)CC(N)=O)C(C)C` (Ac-I[Sar]LMV[Sar]-NH2) registered a solubility in data set [1] of more than 2500 µM. For the same compound, the remaining at 24 h in data set [2] is 60%. The viability at 4 h in data set [3] was determined as 95%. Also, the Papp in data set [4] was 2.2 ×10⁻⁶ cm/s.

Compound `CC(=O)N[C@@H](CCCCN)C(=O)N(C)[C@@H](CC(C)C)C(=O)N[C@H](C(=O)N(C)[C@@H](Cc1ccccc1)C(=O)N[C@@H](Cc1ccccc1)C(=O)N(C)[C@@H](C)C(N)=O)C(C)C` (Ac-K[NMeL]V[NMeF]F[NMeA]-NH2) returned a solubility in data set [1] of more than 2500 µM. Also, in data set [2], the remaining at 24 h came out at 94%. Also, in data set [3], the viability at 4 h came out at 95%.

In the case of Ac-KLVFFA-NH2, the concentration in solution in data set [1] (solubility) came to 32 µM. Also, in data set [5], the inhibition result is “Active”. The remaining at 24 h in data set [2] turned out to be 36%. In addition, in data set [3], the viability at 4 h was determined as 95%. Also, in data set [4], the Papp amounted to 2.8 ×10⁻⁶ cm/s.

Compound `CC(=O)N[C@@H](CCCCN)C(=O)N(C)[C@@H](CC(C)C)C(=O)N(C)[C@H](C(=O)N(C)[C@@H](Cc1ccccc1)C(=O)N(C)[C@@H](Cc1ccccc1)C(=O)N(C)[C@@H](C)C(N)=O)C(C)C` (Ac-K[NMeL][NMeV][NMeF][NMeF][NMeA]-NH2) registered a solubility in data set [1] of 899 µM (≈ 751 µg/mL). In data set [2], the remaining at 24 h is 98%. For the same compound, the viability at 4 h in data set [3] turned out to be 95%. For the same compound, the Papp in data set [4] stood at 2.3 ×10⁻⁶ cm/s.

In turn, `CC(=O)N[C@@H](CCCCN)C(=O)N[C@@H](CC(C)C)C(=O)N(C)[C@H](C(=O)N[C@@H](Cc1ccccc1)C(=O)N(C)[C@@H](Cc1ccccc1)C(=O)N[C@@H](C)C(N)=O)C(C)C` (Ac-KL[NMeV]F[NMeF]A-NH2) displayed a solubility in data set [1] of 1580 µM (≈ 1260 µg/mL). Besides, the remaining at 24 h in data set [2] was determined as 96%. Further, the viability at 4 h in data set [3] was found to be 95%.

In data set [1], `CC[C@H](C)[C@@H](C(=O)NCC(=O)N(C)[C@@H](CC(C)C)C(=O)N[C@@H](CCSC)C(=O)N(C)[C@H](C(=O)NCC(N)=O)C(C)C)N(C)C(C)=O` (Ac-[NMeI]G[NMeL]M[NMeV]G-NH2) yielded a solubility of more than 2500 µM. Besides, in data set [2], the remaining at 24 h turned out to be 94%. Also, in data set [3], the viability at 4 h was 95%. Besides, the apparent permeability (Papp) in data set [4] was found to be 1.6 ×10⁻⁶ cm/s.

In turn, `CC[C@H](C)[C@@H](C(=O)N(C)CC(=O)N(C)[C@@H](CC(C)C)C(=O)N[C@@H](CCSC)C(=O)N(C)[C@H](C(=O)N(C)CC(N)=O)C(C)C)N(C)C(C)=O` (Ac-[NMeI][Sar][NMeL]M[NMeV][Sar]-NH2) registered a solubility in data set [1] of more than 2500 µM. Further, in data set [2], the remaining at 24 h amounted to 100%. Also, in data set [3], the viability at 4 h came out at 95%. Besides, in data set [4], the Papp was 1.4 ×10⁻⁶ cm/s.
